Reference: publication PMC10010340, “The Wnt Pathway Inhibitor RXC004 Blocks Tumor Growth and Reverses Immune Evasion in Wnt Ligand–dependent Cancer Models” (Cancer Research Communications, 2022)

Key:
[1] = test system: B16F10 tumors; assay: B16F10/SCID-Beige model; format: in vivo, mouse (SCID-Beige); conditions: 5 mg/kg once daily for 21 days, immunocompromised mice
Description: B16F10/SCID-Beige model was performed at Axis Bioservices. Mouse B16F10 cells (2 × 10^5) were subcutaneously implanted in flanks of the immunocompromised male SCID-Beige mice. Treatment with RXC004 (5 mg/kg once daily) was initiated at day 3, once the tumors were palpable, and tumor volume assessed over time.

[2] = test system: SNU-1411 xenograft; assay: SNU-1411 tumor reimplantation study; format: in vivo, mouse (NOD-SCID); conditions: prior treatment 5 mg/kg once daily, 9 days; versus vehicle pretreated
Description: The reimplantation study was performed at Sygnature Discovery. SNU-1411–implanted NOD-SCID mice were dosed orally with RXC004 (5 mg/kg, once daily) once tumors reached an average size of 350 mm^3. After 9 days treatment, tumors were resected and equivalent viable tumor fragments from each tumor were reimplanted into separate naïve NOD-SCID mice, tumor volume was assessed at various subsequent timepoints.

[3] = test system: cell lines with mutations in downstream Wnt signaling; assay: Proliferation, 5 days, ATPLite; format: cell-based, human; conditions: concentration-series
Description: (§1) Cells were treated with a concentration-series of RXC004 for 5 days and proliferation measured using ATPLite 1-Step Reagent (Perkin Elmer #6016731). Data were normalized to DMSO-treated controls and IC50 values determined. Colorectal cell lines used were: WiDR (APC-E853*/T1556fs*3), HCT116 (β-cateninΔSer45; RNF43-R117fs*41), JVE-109 (RNF43-V211fs*47/G659fs*41), SNU-1411 (PRPTK-RSPO-3 fusion). Pancreatic cell lines were: CAPAN-2 (RNF43-R330fs*89), AsPC1 (RNF43-S720*), and HPAF-II (RNF43-E174*). Cell lines were from ATCC, except for SNU-1411 (Korean Cell Line Bank) and cultured for no more than 20 passages. Cells were routinely tested for Mycoplasma by the MycoAlert test (Lonza) and authenticated using short tandem repeat fingerprinting.

[4] = test system: cell lines with RNF43 mutations and RSPO3 fusions; assay: Proliferation, 5 days, ATPLite; format: cell-based, human; conditions: concentration-series
Description: as §1

[5] = test system: CT26 tumors; assay: CT26/BALB/c syngeneic model; format: in vivo, mouse (BALB/c); conditions: RXC004 1.5 or 5 mg/kg once daily; anti-PD-1 10 mg/kg every 3 days
Description: CT26/BALB/c syngeneic model was performed at ProQuinase GmbH. Mouse CT26 cells (5 × 10^5) were subcutaneously implanted in the flanks of the immunocompetent female BALB/c mice. Treatment was initiated once tumors reached approximately 50 mm^3. RXC004 was dosed orally at 1.5 or 5 mg/kg (once daily). Anti-PD-1 (BioXCell) or isotype control was dosed every 3 days at 10 mg/kg i.p. Tumor volume was measured over time. For immunophenotyping the tumor infiltrate, tumors from a separate study were resected at day 14, weighed, digested, and stained for flow cytometry analysis by Beckton Dickenson LSR Fortessa. T-cell analysis panel included viability dye, CD45, CD3, CD4, CD8, CD25, and FOXP3.

[6] = test system: β-catenin protein levels in L-Wnt3a cells; assay: β-catenin expression by flow cytometry; format: cell-based, mouse; conditions: 100 nmol/L, 24 hours
Description: Reporter Assay: Media from L-Wnt3a cells (L cells overexpressing Wnt3a; ATCC CRL-2647) treated with a concentration-series of RXC004, was incubated with the LEADING LIGHT Wnt Reporter Cell Line (Enzo life sciences; ENZ-61002-0001). Luciferase was detected using the ONE-Glo Luciferase Assay System (Promega E6120), data were normalized to DMSO-treated controls and IC50 values determined. Recombinant Wnt3a (Bio-Techne #1324-WN-010) was used at 1 μg/mL. β-catenin expression: L-Wnt3a cells were treated with RXC004 (100 nmol/L) or DMSO (0.1%) for 24 hours. Cellular β-catenin protein levels were quantified by staining with anti-β-catenin (AlexaFluor488, BD 562505) and assessment using an Agilent Novocyte-3000 flow cytometer.

[7] = test system: cells with upstream aberrations in Wnt pathway components; assay: Cell-cycle analysis by flow cytometry; format: cell-based, human; conditions: 100 nmol/L, 3 days
Description: For concentration–response effects on gene expression, Single-Shot Cell Lysis kit (Bio-Rad #172-5080) was used for RNA extraction, data were normalized to DMSO-treated controls, and IC50 values determined. For cell-cycle analysis, the cancer cell line panel was treated with RXC004 (100 nmol/L) or DMSO (0.1%) for 3 days. Cell-cycle profiles were determined by staining with propidium iodide (Thermo Fisher Scientific #P3566) and phospho-Ser10-Histone-H3 (AlexaFluor-647, BioLegend #650806), and quantified using an Agilent Novocyte-3000 flow cytometer. For in vitro growth curve analysis, HPAF-II and SNU-1411 cells were seeded in 96-well plates at 2,000 cells/well and imaged on the IncuCyte (Sartorius) at 10× magnification with 4 fields of view per well. Total cell object count over time was calculated using the Adherent Cell-by-Cell analysis module.

[8] = test system: HPAF-II cells cocultured with human PBMCs; assay: HPAF-II / human PBMC coculture; format: cell-based; conditions: HPAF-II pretreated 100 nmol/L, 3 days
Description: HPAF-II cells were incubated for 3 days with RXC004 (100 nmol/L) or DMSO control, washed and detached using Accutase and equal number of viable cells (as assessed by Trypan Blue exclusion) per treatment were reseeded in 96-well plates. Frozen human peripheral blood mononuclear cells (PBMC), originally collected by density gradient separation using Histopaque from four healthy donors, were thawed and cultured in complete media. After approximately 40 hours, nonadherent PBMCs were added to coculture with the HPAF-II cells, at a PBMC:HPAF-II ratio of 5:1. T-cell proliferation and cytokine production was stimulated using Immunocult CD3/CD28-tetramer (Stemcell Technologies #10971). For monoculture nonadherent PBMC experiments, T cells were stimulated using Immunocult in the presence or absence of recombinant Wnt3a (Biotechne #5036-WN-010) and/or recombinant Wnt5a (Biotechne #645-WN-010), both at 100 ng/mL. After 5 days, supernatants from monoculture or coculture experiments were removed for analysis, whereas suspension cells were fixed, stained with anti-Ki67 (BD #563462), anti-CD4 (BioLegend #317420), and anti-CD8 (BD #564116) antibodies, before flow cytometry was performed on a Novocyte flow cytometer. Cytokines and chemokines in the supernatant were quantified using a 30-plex panel on Magpix (Thermo Fisher Scientific #LHC6003M) or ELISA for IFNγ (R&D Systems # DY285B-05).

Q: For `Cc1c(-c2ccnc(C(F)(F)F)c2)ncn1CC(=O)Nc1ccc(-c2cnccn2)cn1` [RXC004, 2-[5-methyl-4-[2-(trifluoromethyl)-4-pyridyl]imidazol-1-yl]-N-(5-pyrazin-2-yl-2-pyridyl)acetamide], which tumor growth [1] is on record?
A: did not reduce tumor growth

Q: What about the “tumor growth after reimplantation into naïve untreated mice” value [2] of the same compound?
A: prolonged impact on tumor growth

Q: What about the proliferation [3] of the same compound?
A: had no effect

Q: What about the proliferation [4] of the same compound?
A: inhibited proliferation

Q: What about the tumor growth [5] of the same compound?
A: limited effect on tumor growth

Q: And the β-catenin protein levels [6]?
A: reduces β-catenin protein levels in L-Wnt3a cells back to baseline

Q: And the “expression of mitosis marker phospho-histone-H3” value [7]?
A: strongly inhibited expression of the mitosis marker phospho-histone-H3

Q: What about the “proportion of cells in S-phase” value [7] of the same compound?
A: reduced the proportion of cells in S-phase

Q: And the “HPAF-II inhibition of T-cell proliferation and IFNγ/GMCSF release” value [8]?
A: fully reversed

Q: What about the “release of CXCL9” value [8] of the same compound?
A: potentiated the HPAF-II–dependent release of the chemokine CXCL9

Q: And the “secretion of VEGF” value [8]?
A: reducing the HPAF-II–dependent secretion of the angiogenesis promoting growth factor VEGF
